In brackets after ≈: the same amount, converted by molar mass. Read-outs that look alike come from different tables or passages of the source.
What was measured:
Assay in all cases: Antibacterial spectrum (Minimum Inhibitory Concentration)
Assay type in all cases: cell-based
[1] = system: Pseudomonas aeruginosa V-1
From the text: (§1) The antibacterial tests were done according to the method authorized by the Chemotherapeutic Society of Japan.

[2] = system: Proteus vulgaris IFO 3167
From the text: as §1

[3] = system: Klebsiella pneumoniae IFO 3512
From the text: as §1

[4] = system: Sta. aureus ATCC 14775; settings: Staphylococcus aureus
From the text: as §1

[5] = system: Ps. aeruginosa IID 1130; settings: Pseudomonas aeruginosa
From the text: as §1

[6] = system: Ser. marcescens IID 619; settings: Serratia marcescens, IID619; Ser. marcescens IID 619, Gram -; read-out: Minimum Inhibitory Concentration
From the text: as §1

[7] = system: Ps. aeruginosa IID 1210; settings: Pseudomonas aeruginosa
From the text: as §1

[8] = system: Escherichia coli NIHJ JC-2
From the text: as §1

[9] = system: Staphylococcus aureus 209P; settings: read-out: Minimum Inhibitory Concentration
From the text: as §1

[10] = system: Bacillus subtilis PCI 219
From the text: as §1

[11] = system: Serratia marcescens IID 618; settings: IID618; Serratia marcescens IID 618, Gram -; read-out: Minimum Inhibitory Concentration
From the text: as §1

[12] = system: Ps. aeruginosa IFO 12689; settings: Pseudomonas aeruginosa
From the text: as §1

[13] = system: Ser. marcescens IID 620; settings: Serratia marcescens, IID620; Ser. marcescens IID 620, Gram -; read-out: Minimum Inhibitory Concentration
From the text: as §1

[14] = system: Pr. vulgaris XK Denken; settings: Proteus vulgaris, read-out: Minimum Inhibitory Concentration
From the text: as §1

[15] = system: E. coli ATCC 10536; settings: Escherichia coli
From the text: as §1

[16] = system: Salmonella enteritidies IID 604
From the text: as §1

[17] = system: Shigella sonnei IID 969; settings: IID969; Shigella sonnei IID 969, Gram -
From the text: as §1

[18] = V1, Pseudomonas aeruginosa V-1, Gram -, read-out: Minimum Inhibitory Concentration
[19] = IFO3167, Proteus vulgaris IFO 3167, Gram -, read-out: Minimum Inhibitory Concentration
[20] = IFO3512, Klebsiella pneumoniae IFO 3512, Gram -, read-out: Minimum Inhibitory Concentration
[21] = ATCC14775, Sta. aureus ATCC 14775, Gram +, read-out: Minimum Inhibitory Concentration
[22] = IID1130, Ps. aeruginosa IID 1130, Gram -, read-out: Minimum Inhibitory Concentration
[23] = IID1210, Ps. aeruginosa IID 1210, Gram -, read-out: Minimum Inhibitory Concentration
[24] = NIHJJC2, Escherichia coli NIHJ JC-2, Gram -, read-out: Minimum Inhibitory Concentration
[25] = Staphylococcus aureus 209P, Gram +
[26] = PCI219, Bacillus subtilis PCI 219, Gram +, read-out: Minimum Inhibitory Concentration
[27] = IFO12689, Ps. aeruginosa IFO 12689, Gram -, read-out: Minimum Inhibitory Concentration
[28] = ATCC10536, E. coli ATCC 10536, Gram -, read-out: Minimum Inhibitory Concentration
[29] = IID604, Salmonella enteritidies IID 604, Gram -, read-out: Minimum Inhibitory Concentration
[30] = Klebsiella pneumoniae, IFO3512, read-out: Minimum Inhibitory Concentration
[31] = ATCC14775, read-out: Minimum Inhibitory Concentration
[32] = Bacillus subtilis, PCI219, read-out: Minimum Inhibitory Concentration
[33] = ATCC10536, read-out: Minimum Inhibitory Concentration
[34] = IFO12689, read-out: Minimum Inhibitory Concentration
[35] = Proteus vulgaris, IFO3167, read-out: Minimum Inhibitory Concentration
[36] = Escherichia coli, NIHJJC2, read-out: Minimum Inhibitory Concentration

SMILES | MIC [1, 18] [µg/mL] | MIC [2, 19] [µg/mL] | MIC [3, 20] [µg/mL] | MIC [4, 21] [µg/mL] | MIC [5, 22] [µg/mL] | MIC [6] [µg/mL] | MIC [7, 23] [µg/mL] | MIC [8, 24] [µg/mL] | MIC [9, 25] [µg/mL] | MIC [10, 26] [µg/mL] | MIC [11] [µg/mL] | MIC [12, 27] [µg/mL] | MIC [13] [µg/mL] | MIC ([14]; Pr. vulgaris XK Denken, Gram -) [µg/mL] | MIC [15, 28] [µg/mL] | MIC [16, 29] [µg/mL] | MIC [15, 33] [µg/mL] | also measured
CCn1cc(C(=O)O)c(=O)c2cc(F)c(N3CCNC(=O)C3)cc21 [Example 8, 1-ethyl-1,4-dihydro-6-fluoro-7-(3-oxo-1-piperazinyl)-4-oxoquinoline-3-carboxylic acid] | 12.5 (≈ 37.5 µM) | 0.78 (≈ 2.34 µM) | 0.1 (≈ 0.3 µM) | 6.25 (≈ 18.8 µM) | 25 (≈ 75 µM) | 12.5 (≈ 37.5 µM) | > 25 | 0.39 (≈ 1.17 µM) | 3.13 (≈ 9.39 µM) | 0.78 (≈ 2.34 µM) | 6.25 (≈ 18.8 µM) | 25 (≈ 75 µM) | 6.25 (≈ 18.8 µM) | 0.39 (≈ 1.17 µM) | 0.78 (≈ 2.34 µM) | 12.5 (≈ 37.5 µM) |  | 
CCn1cc(C(=O)O)c(=O)c2cc(F)c(N3CCN(Cc4ccc(N)cc4)CC3)cc21.Cl [Example 7, 1-ethyl-7-[(4-p-aminobenzyl)-1-piperazinyl]-1,4-dihydro-6-fluoro-4-oxo-quinoline-3-carboxylic acid hydrochloride] | 12.5 | 0.78 |  |  | 25 | 3.13 | 25 |  |  |  | 3.13 | 25 |  | 0.78 |  | 3.13 | 0.39 | MIC [3, 30]: 0.1 µg/mL; MIC [4, 31]: 0.39 µg/mL; MIC [10, 32]: 0.2 µg/mL
CCn1cc(C(=O)O)c(=O)c2cc(F)c(N3CCNCC3)nc21.Cl [Example 1, 1-ethyl-1,4-dihydro-6-fluoro-7-(1-piperazinyl)-4-oxo-1,8-naphthyridine-3-carboxylic acid hydrochloride] | 3.13 | 0.2 | 0.2 | 6.25 | 1.56 | 0.78 | 6.25 | 0.2 | 0.78 | 0.39 | 0.39 |  | 0.39 | 0.39 | 0.39 |  |  | MIC [12, 34]: 6.25 µg/mL; MIC ([16]; Salmonella, IID604, read-out: Minimum Inhibitory Concentration): 0.39 µg/mL
CCn1cc(C(=O)O)c(=O)c2cc(Br)c(N3CCN(C)CC3)cc21 [Example 23, 1-ethyl-6-bromo-1,4-dihydro-7-(4-methyl-1-piperazinyl)-4-oxoquinoline-3-carboxylic acid] | 100 (≈ 254 µM) | 0.78 (≈ 1.98 µM) | 0.39 (≈ 0.989 µM) | 3.13 (≈ 7.94 µM) | > 100 | 3.13 (≈ 7.94 µM) | > 100 | 0.39 (≈ 0.989 µM) | 1.56 (≈ 3.96 µM) | 0.78 (≈ 1.98 µM) | 0.78 (≈ 1.98 µM) | > 100 | 0.78 (≈ 1.98 µM) | 3.13 (≈ 7.94 µM) | 0.78 (≈ 1.98 µM) | 3.13 (≈ 7.94 µM) |  | MIC [17]: 0.78 µg/mL (≈ 1.98 µM)
CCn1cc(C(=O)O)c(=O)c2cc(F)c(N3CCN(C4OC(=O)c5ccccc54)CC3)cc21 (stereo not shown) [Example 28, 1-ethyl-1,4-dihydro-6-fluoro-4-oxo-7-(4-phthalidyl-1-piperazinyl)quinoline-3-carboxylic acid] | 0.78 (≈ 1.73 µM) | ≤ 0.05 | ≤ 0.05 | 3.13 (≈ 6.93 µM) | 1.56 (≈ 3.46 µM) | 0.2 (≈ 0.443 µM) | 1.56 (≈ 3.46 µM) | ≤ 0.05 | 0.78 (≈ 1.73 µM) | 0.2 (≈ 0.443 µM) | 0.1 (≈ 0.222 µM) | 1.56 (≈ 3.46 µM) | 0.1 (≈ 0.222 µM) | 0.2 (≈ 0.443 µM) |  | 0.1 (≈ 0.222 µM) | 0.1 (≈ 0.222 µM) | 
C=Cn1cc(C(=O)O)c(=O)c2cc(F)c(N3CCNCC3)cc21.Cl [Example 3, 1-vinyl-6-fluoro-7-(1-piperazinyl)-4-oxo-1,4-dihydro-quinoline-3-carboxylic acid hydrochloride] |  |  |  |  |  |  |  |  |  |  |  |  |  |  |  |  | 0.1 | MIC ([1]; Pseudomonas aeruginosa, V1, read-out: Minimum Inhibitory Concentration): 0.39 µg/mL; MIC [2, 35]: 0.2 µg/mL; MIC [3, 30]: 0.1 µg/mL; MIC [4, 31]: 6.25 µg/mL; MIC ([5]; IID1130, read-out: Minimum Inhibitory Concentration): 1.56 µg/mL; MIC ([7]; IID1210, read-out: Minimum Inhibitory Concentration): 1.56 µg/mL; MIC [8, 36]: 0.1 µg/mL; MIC ([9]; Staphylococcus aureus, 209P): 3.13 µg/mL; MIC [10, 32]: 0.39 µg/mL; MIC [12, 34]: 1.56 µg/mL; MIC [14]: 0.39 µg/mL
CCn1cc(C(=O)O)c(=O)c2cc(F)c(N3CCN(Cc4ccc([N+](=O)[O-])cc4)CC3)cc21 [Example 27, 1-ethyl-1,4-dihydro-6-fluoro-7-[4-(p-nitrobenzyl)-1-piperazinyl]-4-oxo-3-carboxylic acid] | > 50 |  | 0.1 (≈ 0.22 µM) | 3.13 (≈ 6.89 µM) |  |  |  |  | 1.56 (≈ 3.43 µM) | 0.1 (≈ 0.22 µM) |  | > 50 |  | 12.5 (≈ 27.5 µM) |  |  | 6.25 (≈ 13.8 µM) | MIC [17]: 6.25 µg/mL (≈ 13.8 µM); MIC [2, 35]: 6.25 µg/mL (≈ 13.8 µM); MIC [8, 36]: 6.25 µg/mL (≈ 13.8 µM)
CCn1cc(C(=O)O)c(=O)c2cc(F)c(N3CCN(N=O)CC3)cc21 [Example 24, 1-ethyl-6-fluoro-7-(4-nitroso-1-piperazinyl)-4-oxo-1,4-dihydroquinoline-3-carboxylic acid] | 3.13 (≈ 8.99 µM) | 0.39 (≈ 1.12 µM) | 0.39 (≈ 1.12 µM) | 0.78 (≈ 2.24 µM) |  |  |  | 0.39 (≈ 1.12 µM) | 0.39 (≈ 1.12 µM) | 0.39 (≈ 1.12 µM) |  | 6.25 (≈ 17.9 µM) |  | 0.39 (≈ 1.12 µM) | 0.39 (≈ 1.12 µM) |  |  | 
CCOC(=O)c1cn(CC)c2cc(N3CCNCC3)c(F)cc2c1=O [Example 17, 1-ethyl-6-fluoro-7-(1-piperazinyl)-4-oxo-1,4-dihydroquinoline-3-carboxylicacid ethyl ester] | 50 (≈ 144 µM) | 12.5 (≈ 36 µM) | 6.25 (≈ 18 µM) | 100 (≈ 288 µM) |  |  |  | 12.5 (≈ 36 µM) | 50 (≈ 144 µM) | 50 (≈ 144 µM) |  | > 100 |  | 25 (≈ 72 µM) | 6.25 (≈ 18 µM) |  |  | 
